Measurements reported in US20250032629A1, “NOVEL NUCLEOLIN-BINDING PEPTIDE AND USE THEREOF” (ANYGEN CO., LTD., priority 2020, published 2025).
Blank lines part the entries; values can stand above or below the molecule they belong to. Ends that are not written are not given here.

Legend:
MCF-7 = assay: Cytotoxicity of AGM-330-CPP fusion peptides; type: cell-based, Human; conditions: MCF-7, fusion peptide alone, Example 11
HCT-116 = assay: Cytotoxicity of AGM-330-CPP fusion peptides; type: cell-based, Human; conditions: HCT-116, fusion peptide alone, Example 11
MDA-MB-231-luc cells = assay: Tumor suppression in breast cancer xenograft model; type: in vivo, NPG mice
Procedure: FIG. 14B is a schematic representation of the experimental protocol. Here, anesthetized 6-week-old […] NPG mice were inoculated with a 1:1 mix of Matrigel and 1×10^6 MDA-MB-231-luc cells into the mammary fat pad. […] Nuclei were stained with DAPI (blue), and the scale bar is 50 μm. Bar graphs represent the mean±SD, and statistical analyses were performed by one-way ANOVA with Dunnett's multiple comparison. *, **, and *** indicate P<0.05, P<0.01, and P<0.001, respectively. […]
All animal experiments were performed in accordance with IACUC guidelines (GIST-2019-040). For tumorigenesis experiments, anesthetized 6-week-old female NOD-scid Il2rg^−/− mice (NPG™, VITALSTAR) were inoculated in the mammary fat pad with 1×10^6 MDA-MB-231-luc cells in a volume of 100 μl (n=5˜6 for each group). After tumor cell inoculation, when the tumor volume reached approximately 100 mm^3, the mice were randomly divided into the following five groups: (i) control, (ii) low-dose paclitaxel (2 mg/kg), (iii) high-dose paclitaxel (10 mg/kg), (iv) AGM-330 (16.68 mg/kg or 8.34 mg/kg), and (v) AGM-330-PTX (19.05 mg/kg or 10.71 mg/kg). The tumor size was measured twice a week, and the tumor volume was calculated with the following formula:
For the bioluminescent imaging experiment, D-luciferin (150 mg/kg; PerkinElmer) was intraperitoneally injected into each mouse, and an IVIS 100 imaging system (Xenogen, Corporation, Alameda, CA) was used for bioluminescent monitoring. Mice were anesthetized with vaporized isoflurane (BK Pharm, Ilsan, Korea) and placed in an imaging chamber. After 10 min, each animal was imaged with an exposure time of 1 min. All bioluminescent image data were provided by Living Image software (version 4.5.2, PerkinElmer). Photons detected from tumors were converted to average radiance values (photon/see/cm^2/sr), which are quantitative data obtained from a region of intensity (ROI) and include the photons emitted by bioluminescent cells from an assigned rectangular area over the whole body of each mouse.
Following in vitro proliferation analysis on cancer lines, the present inventors investigated whether AGM-330t-PTX could be a potential therapeutic agent in vivo. The present inventors inoculated MDA-MB-231-luc cells into the mammary fat pad of NPG mice. After the subcutaneous tumors grew to 100 mm^3, comparative efficacy studies were performed by dividing the animals into five groups (n=5/group) treated with vehicle (PBS), AGM-330t (16.68 mg/kg), PTX (2 or 10 mg/kg, respectively) or AGM-330t-PTX (19.05 mg/kg) twice a week by tail vein injection (FIG. 14B). Tumor growth was monitored by measuring volumes twice a week with a caliber rule over the course of 3 weeks.
The present inventors also performed histological staining of the excised tumors, and an independent pathologist evaluated the slides.

[1] = Body weight and serum blood chemistry in xenograft mice
[2] = target: T1, recombinant nucleolin protein (UniProt P19338 1-710, limits assumed); assay: SPR (Biacore T-200), recombinant NCL immobilised on a CM5 chip, AGM-330 at 20 nM to 2.5 uM
T1 construct: also called recombinant NCL; NCL
T1 sequence (P19338 whole entry): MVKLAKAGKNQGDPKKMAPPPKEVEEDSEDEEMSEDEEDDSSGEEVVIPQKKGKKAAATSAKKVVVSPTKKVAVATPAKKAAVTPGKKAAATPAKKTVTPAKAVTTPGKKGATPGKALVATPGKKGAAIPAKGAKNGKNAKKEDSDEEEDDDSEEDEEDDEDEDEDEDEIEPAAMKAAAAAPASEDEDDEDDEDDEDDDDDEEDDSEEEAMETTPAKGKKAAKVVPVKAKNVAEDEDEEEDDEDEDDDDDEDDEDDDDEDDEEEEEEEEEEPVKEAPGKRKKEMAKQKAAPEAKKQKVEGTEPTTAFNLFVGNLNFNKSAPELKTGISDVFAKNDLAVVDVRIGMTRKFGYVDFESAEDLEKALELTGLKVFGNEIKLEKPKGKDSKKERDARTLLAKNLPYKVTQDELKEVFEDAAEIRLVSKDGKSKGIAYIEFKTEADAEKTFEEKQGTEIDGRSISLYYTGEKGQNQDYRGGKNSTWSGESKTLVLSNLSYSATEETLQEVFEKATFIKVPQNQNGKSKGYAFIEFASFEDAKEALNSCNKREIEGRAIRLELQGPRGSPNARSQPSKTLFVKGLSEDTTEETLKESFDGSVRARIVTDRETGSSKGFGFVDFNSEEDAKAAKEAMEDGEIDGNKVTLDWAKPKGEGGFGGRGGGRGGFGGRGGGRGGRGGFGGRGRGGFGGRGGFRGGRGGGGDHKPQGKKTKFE
Procedure: (§1) The SPR sensorgrams shown are from an experiment that is representative of a set of three separate experiments using different sensor chips with similar results. Recombinant NCL was immobilized onto a CM5 sensor chip. Various concentrations of AGM-330 (20 nM to 2.5 µM) were incubated with immobilized NCL and analyzed on a Biacore T-200 apparatus.
(§2) Binding affinity was tested by SPR (surface plasmon resonance) spectroscopy (Biacore T-200). The recombinant nucleolin protein was immobilized on the CM5 sensorchip, and the treated with AGM-330 at various concentrations (20 nM to 2.5 µM). The sensogram for each sample was analyzed to determine the KD value.

[3] = target: T1, recombinant nucleolin protein; assay: SPR (Biacore T-200), recombinant NCL immobilised on a CM5 chip, AGM-330 20 nM to 2.5 µM as analyte
Procedure: as §1, §2

Molecule: CC[C@H](C)[C@H](NC(=O)[C@H](CCCNC(=N)N)NC(=O)[C@H](CC(C)C)NC(=O)[C@@H](NC(=O)[C@H](CCCNC(=N)N)NC(=O)[C@H](CCSC)NC(=O)[C@@H](NC(=O)[C@@H](N)CCCNC(=N)N)[C@@H](C)CC)[C@@H](C)CC)C(=O)N[C@@H](CC(C)C)C(=O)N[C@@H](CCCCN)C(=O)N[C@@H](CC(C)C)C(=O)N[C@@H](C)C(=O)N[C@@H](CCCNC(=N)N)C(=O)NCCCC[C@H](NC(=O)[C@H](CCCNC(=N)N)NC(=O)[C@H](C)NC(=O)[C@H](CC(C)C)NC(=O)[C@H](CCCCN)NC(=O)[C@H](CC(C)C)NC(=O)[C@@H](NC(=O)[C@H](CCCNC(=N)N)NC(=O)[C@H](CC(C)C)NC(=O)[C@@H](NC(=O)[C@H](CCCNC(=N)N)NC(=O)[C@H](CCSC)NC(=O)[C@@H](NC(=O)[C@@H](N)CCCNC(=N)N)[C@@H](C)CC)[C@@H](C)CC)[C@@H](C)CC)C(=O)N[C@@H](CSSC[C@H](NC(=O)[C@H](CCCCNC(=O)CCOCCOCCOCCOCCOCCOCCNC(=O)[C@H](CCCCN)NC(=O)[C@H](CC(C)C)NC(=O)[C@H](Cc1ccc(O)cc1)NC(=O)[C@@H](NC(=O)[C@H](CCSC)NC(=O)[C@H](C)NC(=O)CNC(=O)[C@H](Cc1c[nH]cn1)NC(=O)[C@@H](N)CCCNC(=N)N)C(C)C)NC(=O)CCOCCOCCOCCOCCOCCOCCNC(=O)[C@H](CCCCN)NC(=O)[C@H](CC(C)C)NC(=O)[C@H](Cc1ccc(O)cc1)NC(=O)[C@@H](NC(=O)[C@H](CCSC)NC(=O)[C@H](C)NC(=O)CNC(=O)[C@H](Cc1c[nH]cn1)NC(=O)[C@@H](N)CCCNC(=N)N)C(C)C)C(=O)O)C(=O)O [AGM-330d-dCPP]
- IC50 (MCF-7): 4.21 µM
- IC50 (HCT-116): 5.47 µM

Molecule: CSCC[C@H](NC(=O)[C@H](C)NC(=O)CNC(=O)[C@H](Cc1c[nH]cn1)NC(=O)[C@@H](N)CCCNC(=N)N)C(=O)N[C@H](C(=O)N[C@@H](Cc1ccc(O)cc1)C(=O)N[C@@H](CC(C)C)C(=O)N[C@@H](CCCCN)C(=O)NCCOCCOCCOCCOCCOCCOCCOCCOCCOCCOCCOCCOCCC(=O)NCCCC[C@H](NC(=O)CCOCCOCCOCCOCCOCCOCCOCCOCCOCCOCCOCCOCCNC(=O)[C@H](CCCCN)NC(=O)[C@H](CC(C)C)NC(=O)[C@H](Cc1ccc(O)cc1)NC(=O)[C@@H](NC(=O)[C@H](CCSC)NC(=O)[C@H](C)NC(=O)CNC(=O)[C@H](Cc1c[nH]cn1)NC(=O)[C@@H](N)CCCNC(=N)N)C(C)C)C(=O)NCCCC[C@H](NC(=O)[C@H](CCCCNC(=O)CCOCCOCCOCCOCCOCCOCCOCCOCCOCCOCCOCCOCCNC(=O)[C@H](CCCCN)NC(=O)[C@H](CC(C)C)NC(=O)[C@H](Cc1ccc(O)cc1)NC(=O)[C@@H](NC(=O)[C@H](CCSC)NC(=O)[C@H](C)NC(=O)CNC(=O)[C@H](Cc1c[nH]cn1)NC(=O)[C@@H](N)CCCNC(=N)N)C(C)C)NC(=O)CCOCCOCCOCCOCCOCCOCCOCCOCCOCCOCCOCCOCCNC(=O)[C@H](CCCCN)NC(=O)[C@H](CC(C)C)NC(=O)[C@H](Cc1ccc(O)cc1)NC(=O)[C@@H](NC(=O)[C@H](CCSC)NC(=O)[C@H](C)NC(=O)CNC(=O)[C@H](Cc1c[nH]cn1)NC(=O)[C@@H](N)CCCNC(=N)N)C(C)C)C(=O)N[C@@H](CSC1CC(=O)N(CCC(=O)O[C@@H](C(=O)O[C@H]2C[C@@]3(O)[C@@H](OC(=O)c4ccccc4)[C@@H]4[C@]5(OC(C)=O)CO[C@@H]5C[C@H](O)[C@@]4(C)C(=O)[C@H](OC(C)=O)C(=C2C)C3(C)C)[C@@H](NC(=O)c2ccccc2)c2ccccc2)C1=O)C(=O)O)C(C)C (stereo partly shown) [AGM-330t-PTX]
- average tumor volume (MDA-MB-231-luc cells; 19.05 mg/kg twice a week, tail vein, n=5): 807±90 mm^3
- decrease of average tumor volume with respect to the same dose PTX (MDA-MB-231-luc cells; 19.05 mg/kg vs PTX 2 mg/kg): approximately 52%
- final average tumor weight (MDA-MB-231-luc cells; 19.05 mg/kg, n=5): 1.3 ± 0.1 g
- apoptotic cell nuclei in excised tumors (TUNEL) (MDA-MB-231-luc cells; mouse, in vivo): increase in apoptotic cell nuclei
- number of cancerous cells in excised tumors (H&E staining, Ki-67) (MDA-MB-231-luc cells; mouse, in vivo): reduction in the number of cancerous cells
- mouse body weights compared to vehicle (PBS) administration ([1]; AGM-330t-PTX 19.05 mg/kg, 3 weeks): not affected
- blood chemistry analysis (ALB, GOT, GPT, TP-PS, UA) ([1]; serum of xenografted mice): no adverse signs of toxicity

Molecule: CC[C@H](C)[C@H](NC(=O)[C@H](CCCNC(=N)N)NC(=O)[C@H](CC(C)C)NC(=O)[C@@H](NC(=O)[C@H](CCCNC(=N)N)NC(=O)[C@H](CCSC)NC(=O)[C@@H](NC(=O)[C@@H](N)CCCNC(=N)N)[C@@H](C)CC)[C@@H](C)CC)C(=O)N[C@@H](CC(C)C)C(=O)N[C@@H](CCCCN)C(=O)N[C@@H](CC(C)C)C(=O)N[C@@H](C)C(=O)N[C@@H](CCCNC(=N)N)C(=O)NCCCC[C@H](NC(=O)[C@H](CCCNC(=N)N)NC(=O)[C@H](C)NC(=O)[C@H](CC(C)C)NC(=O)[C@H](CCCCN)NC(=O)[C@H](CC(C)C)NC(=O)[C@@H](NC(=O)[C@H](CCCNC(=N)N)NC(=O)[C@H](CC(C)C)NC(=O)[C@@H](NC(=O)[C@H](CCCNC(=N)N)NC(=O)[C@H](CCSC)NC(=O)[C@@H](NC(=O)[C@@H](N)CCCNC(=N)N)[C@@H](C)CC)[C@@H](C)CC)[C@@H](C)CC)C(=O)NCCCC[C@H](NC(=O)[C@H](CCCCNC(=O)[C@H](CCCNC(=N)N)NC(=O)[C@H](C)NC(=O)[C@H](CC(C)C)NC(=O)[C@H](CCCCN)NC(=O)[C@H](CC(C)C)NC(=O)[C@@H](NC(=O)[C@H](CCCNC(=N)N)NC(=O)[C@H](CC(C)C)NC(=O)[C@@H](NC(=O)[C@H](CCCNC(=N)N)NC(=O)[C@H](CCSC)NC(=O)[C@@H](NC(=O)[C@@H](N)CCCNC(=N)N)[C@@H](C)CC)[C@@H](C)CC)[C@@H](C)CC)NC(=O)[C@H](CCCNC(=N)N)NC(=O)[C@H](C)NC(=O)[C@H](CC(C)C)NC(=O)[C@H](CCCCN)NC(=O)[C@H](CC(C)C)NC(=O)[C@@H](NC(=O)[C@H](CCCNC(=N)N)NC(=O)[C@H](CC(C)C)NC(=O)[C@@H](NC(=O)[C@H](CCCNC(=N)N)NC(=O)[C@H](CCSC)NC(=O)[C@@H](NC(=O)[C@@H](N)CCCNC(=N)N)[C@@H](C)CC)[C@@H](C)CC)[C@@H](C)CC)C(=O)N[C@@H](CSSC[C@H](NC(=O)[C@H](CCCCNC(=O)[C@H](CCCCNC(=O)CCOCCOCCOCCOCCOCCOCCNC(=O)[C@H](CCCCN)NC(=O)[C@H](CC(C)C)NC(=O)[C@H](Cc1ccc(O)cc1)NC(=O)[C@@H](NC(=O)[C@H](CCSC)NC(=O)[C@H](C)NC(=O)CNC(=O)[C@H](Cc1c[nH]cn1)NC(=O)[C@@H](N)CCCNC(=N)N)C(C)C)NC(=O)CCOCCOCCOCCOCCOCCOCCNC(=O)[C@H](CCCCN)NC(=O)[C@H](CC(C)C)NC(=O)[C@H](Cc1ccc(O)cc1)NC(=O)[C@@H](NC(=O)[C@H](CCSC)NC(=O)[C@H](C)NC(=O)CNC(=O)[C@H](Cc1c[nH]cn1)NC(=O)[C@@H](N)CCCNC(=N)N)C(C)C)NC(=O)[C@H](CCCCNC(=O)CCOCCOCCOCCOCCOCCOCCNC(=O)[C@H](CCCCN)NC(=O)[C@H](CC(C)C)NC(=O)[C@H](Cc1ccc(O)cc1)NC(=O)[C@@H](NC(=O)[C@H](CCSC)NC(=O)[C@H](C)NC(=O)CNC(=O)[C@H](Cc1c[nH]cn1)NC(=O)[C@@H](N)CCCNC(=N)N)C(C)C)NC(=O)CCOCCOCCOCCOCCOCCOCCNC(=O)[C@H](CCCCN)NC(=O)[C@H](CC(C)C)NC(=O)[C@H](Cc1ccc(O)cc1)NC(=O)[C@@H](NC(=O)[C@H](CCSC)NC(=O)[C@H](C)NC(=O)CNC(=O)[C@H](Cc1c[nH]cn1)NC(=O)[C@@H](N)CCCNC(=N)N)C(C)C)C(=O)O)C(=O)O [AGM-330t-tCPP]
- IC50 (MCF-7): 3.8 µM
- IC50 (HCT-116): 3.79 µM

- Kd [2]: ~0.0577 µM
- Kd [3]: 0.0577 µM
B1: AGM-330 (peptide)
peptide: RHGAMVYLK
modifications: not fully specified (C-terminus); also: MAP dendrimer (dimer/tetramer) on lysine core with C-terminal Cys
notes: The form used in SPR (monomer, dimer or tetramer); also called AGM-330 peptide; AGM peptide ligand
